Drawing on patent US11420973B2, “Amide substituted indole compounds useful as TLR inhibitors” (BRISTOL-MYERS SQUIBB COMPANY, priority 2017, dated 2022), this text covers IC50 for 20 compounds.

One test concerns the target human TLR7 (Homo sapiens (Human), UniProt Q9NYK1). Description: TLR7 inhibition reporter assay (HEK-Blue SEAP reporter, gardiquimod stimulation). It counts as cell-based. The note with it: HEK-Blue cells overexpressing human TLR7, gardiquimod 7.5 μM. In general terms: Reporter assays use an easily measured gene product as a stand-in for the process of interest.
Another test deals with human TLR8 (Homo sapiens (Human), UniProt Q9NR97). As to the kind of experiment: TLR8 inhibition reporter assay (HEK-Blue SEAP reporter, R848 stimulation).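 Also: SEAP driven by IFN-β minimal promoter with NF-κB and AP-1 sites, 22 h incubation, compounds 0.05 nM–50 µM, inhibition scaled between agonist plus DMSO and reference inhibitor wells.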 The conditions noted are these: read-out: TLR8 IC50; HEK-Blue cells overexpressing human TLR8, R848 15.9 μM, SEAP reporter.
The target of another test is human TLR9 (Homo sapiens (Human), UniProt Q9NR96). Description: TLR9 inhibition reporter assay (HEK-Blue SEAP reporter, ODN2006 stimulation).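 Also: SEAP reporter under IFN-β minimal promoter with five NF-κB and AP-1 sites, 22 h incubation, compounds 0.05 nM–50 µM, inhibition relative to agonist plus DMSO versus known inhibitor.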 The conditions noted are these: read-out: TLR9 IC50; HEK-Blue cells overexpressing human TLR9, ODN2006 5 nM, SEAP reporter.

Structures are written as SMILES.

human TLR8, sequence (Q9NR97 27-1041): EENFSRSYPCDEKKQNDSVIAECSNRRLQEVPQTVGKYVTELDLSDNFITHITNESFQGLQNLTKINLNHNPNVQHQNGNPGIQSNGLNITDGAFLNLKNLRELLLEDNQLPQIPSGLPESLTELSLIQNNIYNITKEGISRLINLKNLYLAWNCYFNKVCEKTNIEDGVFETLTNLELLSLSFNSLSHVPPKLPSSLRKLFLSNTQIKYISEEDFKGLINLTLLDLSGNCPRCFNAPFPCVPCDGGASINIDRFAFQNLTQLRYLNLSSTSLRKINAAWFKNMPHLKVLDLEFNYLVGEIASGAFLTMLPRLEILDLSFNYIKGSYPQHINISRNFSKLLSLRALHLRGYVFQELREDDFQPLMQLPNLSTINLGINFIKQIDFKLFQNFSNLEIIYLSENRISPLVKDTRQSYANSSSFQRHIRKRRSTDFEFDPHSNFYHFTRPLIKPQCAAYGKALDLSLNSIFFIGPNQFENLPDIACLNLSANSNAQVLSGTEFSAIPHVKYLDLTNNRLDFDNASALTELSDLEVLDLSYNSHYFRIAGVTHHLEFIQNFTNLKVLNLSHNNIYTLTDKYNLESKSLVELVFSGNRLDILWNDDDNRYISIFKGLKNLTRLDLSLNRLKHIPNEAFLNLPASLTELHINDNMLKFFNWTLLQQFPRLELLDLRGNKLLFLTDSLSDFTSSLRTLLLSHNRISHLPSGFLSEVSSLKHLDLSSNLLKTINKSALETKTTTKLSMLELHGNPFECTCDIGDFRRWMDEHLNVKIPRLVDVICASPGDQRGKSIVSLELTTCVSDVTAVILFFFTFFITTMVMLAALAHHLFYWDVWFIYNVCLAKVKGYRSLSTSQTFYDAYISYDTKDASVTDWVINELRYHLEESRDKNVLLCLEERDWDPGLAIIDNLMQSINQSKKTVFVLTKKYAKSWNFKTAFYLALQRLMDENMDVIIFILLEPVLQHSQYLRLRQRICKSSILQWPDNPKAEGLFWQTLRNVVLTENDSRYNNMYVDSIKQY
human TLR9, sequence (Q9NR96 26-1032): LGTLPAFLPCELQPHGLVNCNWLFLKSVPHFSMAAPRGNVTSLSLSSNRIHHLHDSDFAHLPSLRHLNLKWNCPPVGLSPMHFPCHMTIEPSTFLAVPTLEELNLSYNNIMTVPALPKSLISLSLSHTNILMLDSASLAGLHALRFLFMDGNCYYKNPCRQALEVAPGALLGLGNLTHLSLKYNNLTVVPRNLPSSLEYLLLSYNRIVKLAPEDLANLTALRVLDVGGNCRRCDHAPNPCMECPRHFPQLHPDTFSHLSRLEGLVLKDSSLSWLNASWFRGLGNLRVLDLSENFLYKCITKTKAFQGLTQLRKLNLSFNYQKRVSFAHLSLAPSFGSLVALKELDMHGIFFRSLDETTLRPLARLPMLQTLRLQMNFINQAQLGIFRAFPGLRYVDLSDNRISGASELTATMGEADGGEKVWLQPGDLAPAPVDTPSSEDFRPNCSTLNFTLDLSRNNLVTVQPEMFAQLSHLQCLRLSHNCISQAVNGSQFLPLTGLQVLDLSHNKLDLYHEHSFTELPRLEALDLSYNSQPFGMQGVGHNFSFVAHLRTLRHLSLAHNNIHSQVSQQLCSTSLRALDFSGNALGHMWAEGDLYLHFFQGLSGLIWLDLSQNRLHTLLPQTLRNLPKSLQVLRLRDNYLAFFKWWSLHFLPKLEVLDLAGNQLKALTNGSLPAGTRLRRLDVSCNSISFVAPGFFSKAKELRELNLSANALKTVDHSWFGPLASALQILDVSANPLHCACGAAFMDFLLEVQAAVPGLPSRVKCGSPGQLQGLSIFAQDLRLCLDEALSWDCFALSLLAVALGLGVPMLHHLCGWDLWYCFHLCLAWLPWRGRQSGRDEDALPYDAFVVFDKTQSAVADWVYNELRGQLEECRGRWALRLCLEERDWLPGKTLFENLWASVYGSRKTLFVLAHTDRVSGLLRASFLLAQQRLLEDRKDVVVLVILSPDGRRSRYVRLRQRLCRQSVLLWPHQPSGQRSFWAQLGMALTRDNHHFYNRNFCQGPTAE
human TLR7, sequence (Q9NYK1 27-1049): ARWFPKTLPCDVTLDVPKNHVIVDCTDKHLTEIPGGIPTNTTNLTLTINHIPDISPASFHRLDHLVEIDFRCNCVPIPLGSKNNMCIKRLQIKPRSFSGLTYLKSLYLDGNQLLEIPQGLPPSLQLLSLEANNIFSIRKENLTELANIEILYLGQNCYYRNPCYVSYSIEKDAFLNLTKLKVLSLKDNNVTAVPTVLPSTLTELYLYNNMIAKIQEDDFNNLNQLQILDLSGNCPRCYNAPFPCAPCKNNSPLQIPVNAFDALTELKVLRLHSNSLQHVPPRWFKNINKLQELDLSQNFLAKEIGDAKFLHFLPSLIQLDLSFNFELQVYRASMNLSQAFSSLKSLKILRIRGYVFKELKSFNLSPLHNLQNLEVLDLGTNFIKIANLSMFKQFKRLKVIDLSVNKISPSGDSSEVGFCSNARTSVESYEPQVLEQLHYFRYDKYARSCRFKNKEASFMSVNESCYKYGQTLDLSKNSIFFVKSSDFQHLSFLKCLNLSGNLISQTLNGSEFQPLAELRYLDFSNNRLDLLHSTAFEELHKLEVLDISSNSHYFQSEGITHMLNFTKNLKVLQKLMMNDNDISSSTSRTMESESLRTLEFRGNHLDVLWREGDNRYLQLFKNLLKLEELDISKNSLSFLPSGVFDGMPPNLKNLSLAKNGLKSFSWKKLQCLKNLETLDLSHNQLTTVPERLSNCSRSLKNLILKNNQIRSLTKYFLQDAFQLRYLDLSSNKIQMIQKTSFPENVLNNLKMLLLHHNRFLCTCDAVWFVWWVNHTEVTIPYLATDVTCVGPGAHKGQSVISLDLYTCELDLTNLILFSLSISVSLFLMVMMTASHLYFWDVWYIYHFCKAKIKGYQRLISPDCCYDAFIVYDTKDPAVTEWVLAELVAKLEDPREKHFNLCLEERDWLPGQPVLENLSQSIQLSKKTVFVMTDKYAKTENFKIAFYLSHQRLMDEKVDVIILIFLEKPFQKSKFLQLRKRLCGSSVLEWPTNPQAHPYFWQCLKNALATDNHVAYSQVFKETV
Procedure for human TLR9: HEK-Blue™-cells (Invivogen) overexpressing human TLR7, TLR8 or TLR9 receptors were used for screening inhibitors of these receptors using an inducible SEAP (secreted embryonic alkaline phosphatase) reporter gene under the control of the IFN-β minimal promoter fused to five NF-κB and AP-1-binding sites. Briefly, cells are seeded into Greiner 384 well plates (15000 cells per well for TLR7, 20,000 for TLR8 and 25,000 for TLR9) and then treated with test compounds in DMSO to yield a final dose response concentration range of 0.05 nM-50 μM. After a 30 minute compound pre-treatment at room temperature, the cells are then stimulated with a TLR7 ligand (gardiquimod at a final concentration of 7.5 μM), TLR8 ligand (R848 at a final concentration of 15.9 μM) or TLR9 ligand (ODN2006 at a final concentration of 5 nM) to activate NF-κB and AP-1 which induce the production of SEAP. After a 22 hour incubation at 37° C., 5% CO2, SEAP levels are determined with the addition of HEK-Blue™ Detection reagent (Invivogen), a cell culture medium that allows for detection of SEAP, according to manufacturer's specifications.

The term IC50 denotes the concentration at which inhibition is half-maximal. For `COc1ccc(-c2[nH]c3ccc(C(=O)N4CC5CN(C(C)C)CC5C4)cc3c2C(C)C)cc1OC` (stereo not drawn) [Example 14, (2-(3,4-dimethoxyphenyl)-3-isopropyl-1H-indol-5-yl)(5-isopropylhexahydropyrrolo[3,4-c]pyrrol-2(1H)-yl)methanone], the IC50 was 0.04 µM at human TLR7, 0.026 µM at human TLR8 and 1.19 µM at human TLR9.

Take `COc1ccc(-c2[nH]c3ccc(C(=O)N4CC5CN(C6CCN(C)CC6)CC5C4)cc3c2C(C)C)cc1OC` (stereo not drawn) [Example 15, (2-(3,4-dimethoxyphenyl)-3-isopropyl-1H-indol-5-yl)(5-(1-methylpiperidin-4-yl)hexahydropyrrolo[3,4-c]pyrrol-2(1H)-yl)methanone]: the results for the IC50 on human TLR7, at human TLR8 and at human TLR9 were 0.099 µM, 0.054 µM and 0.429 µM, respectively.

`CNCC(=O)N1CC2CN(C(=O)c3ccc4[nH]c(-c5ccc(OC)c(OC)c5)c(C(C)C)c4c3)CC2C1` (stereo not drawn) [Example 16, 1-(5-(2-(3,4-dimethoxyphenyl)-3-isopropyl-1H-indole-5-carbonyl)hexahydropyrrolo[3,4-c]pyrrol-2(1H)-yl)-2-(methylamino)ethanone]: the figures for the IC50 against human TLR7, at human TLR8 and at human TLR9 were 0.28 µM, 0.194 µM and 3.94 µM, respectively.

With `CCc1c(-c2ccc(OC)c(OC)c2)[nH]c2ccc(C(=O)NCCN(C)C)cc12` [Example 17, 2-(3,4-dimethoxyphenyl)-N-[2-(dimethylamino)ethyl]-3-ethyl-1H-indole-5-carboxamide], the half-inhibitory concentration (IC50) is 0.115 µM on human TLR7, 0.0079 µM on human TLR8 and 2.51 µM on human TLR9.

With `CCc1c(-c2ccc(OC)c(OC)c2)[nH]c2ccc(C(=O)NC[C@@H](F)C(C)(C)O)cc12` [Example 18, (R)-2-(3,4-dimethoxyphenyl)-3-ethyl-N-(2-fluoro-3-hydroxy-3-methylbutyl)-1H-indole-5-carboxamide], the values for the IC50 against human TLR7, at human TLR8 and on human TLR9 were 1.66 µM, 0.26 µM and 13.8 µM, respectively.

With `CCc1c(-c2ccc(OC)c(OC)c2)[nH]c2ccc(C(=O)NC3CCCCCC3)cc12` [Example 20, N-cycloheptyl-2-(3,4-dimethoxyphenyl)-3-ethyl-1H-indole-5-carboxamide], the IC50 at human TLR7 is 2.31 µM; on human TLR8 it was 0.858 µM; at human TLR9, > 50 µM.

For `CCc1c(-c2ccc(OC)c(OC)c2)[nH]c2ccc(C(=O)Nc3cnn(C4COC4)c3)cc12` [Example 21, 2-(3,4-dimethoxyphenyl)-3-ethyl-N-(1-(oxetan-3-yl)-1H-pyrazol-4-yl)-1H-indole-5-carboxamide], the IC50 at human TLR7 was found to be 0.764 µM; on human TLR8, 0.132 µM; on human TLR9 it was 37.4 µM.

Turning to `CCc1c(-c2ccc(OC)c(OC)c2)[nH]c2ccc(C(=O)N(C)Cc3cccnc3)cc12` [Example 22, 2-(3,4-dimethoxyphenyl)-3-ethyl-N-methyl-N-(pyridin-3-ylmethyl)-1H-indole-5-carboxamide], the IC50 came to 0.356 µM against human TLR7, 0.264 µM at human TLR8 and 37.6 µM at human TLR9.

For the compound `CCc1c(-c2ccc(OC)c(OC)c2)[nH]c2ccc(C(=O)N(C)Cc3csc(C4CCNCC4)n3)cc12` [Example 23, 2-(3,4-dimethoxyphenyl)-3-ethyl-N-methyl-N-((2-(piperidin-4-yl)thiazol-4-yl)methyl)-1H-indole-5-carboxamide], the values for the IC50 on human TLR7, at human TLR8 and on human TLR9 were 0.362 µM, 0.043 µM and 0.885 µM, respectively.

For the compound `CCc1c(-c2ccc(OC)c(OC)c2)[nH]c2ccc(C(=O)N(C)CCc3ccccn3)cc12` [Example 24, 2-(3,4-dimethoxyphenyl)-3-ethyl-N-methyl-N-(2-(pyridin-2-yl)ethyl)-1H-indole-5-carboxamide], the IC50 on human TLR7 turned out to be 1.79 µM; on human TLR8, 0.581 µM; at human TLR9 it was 31.4 µM.

As to `CCc1c(-c2ccc(OC)c(OC)c2)[nH]c2ccc(C(=O)N3CCC(N4CCN(C)CC4)CC3)cc12` [Example 25, (2-(3,4-dimethoxyphenyl)-3-ethyl-1H-indol-5-yl)(4-(4-methylpiperazin-1-yl)piperidin-1-yl)methanone], the concentration for half-maximal inhibition (IC50) stood at 0.186 µM against human TLR7, 0.014 µM on human TLR8 and 3.71 µM on human TLR9.

Regarding `CCc1c(-c2ccc(OC)c(OC)c2)[nH]c2ccc(C(=O)N3CCC[C@H]3COC)cc12` [Example 27, (S)-(2-(3,4-dimethoxyphenyl)-3-ethyl-1H-indol-5-yl)(2-(methoxymethyl)pyrrolidin-1-yl)methanone], the values for the IC50 at human TLR7, at human TLR8 and on human TLR9 were 1.74 µM, 0.782 µM and > 50 µM, respectively.

In the case of `CCc1c(-c2ccc(OC)c(OC)c2)[nH]c2ccc(C(=O)N3CCC[C@H]3CO)cc12` [Example 28, (S)-(2-(3,4-dimethoxyphenyl)-3-ethyl-1H-indol-5-yl)(2-(hydroxymethyl)pyrrolidin-1-yl)methanone], the concentration for half-maximal inhibition (IC50) at human TLR7 was 1.35 µM; on human TLR8 it was 0.22 µM; at human TLR9, > 50 µM.

Turning to `CCc1c(-c2ccc(OC)c(OC)c2)[nH]c2ccc(C(=O)N3CC[C@@H](N(C)C)C3)cc12` [Example 29, (R)-(2-(3,4-dimethoxyphenyl)-3-ethyl-1H-indol-5-yl)(3-(dimethylamino)pyrrolidin-1-yl)methanone], the figures for the IC50 against human TLR7, on human TLR8 and at human TLR9 were 0.188 µM, 0.034 µM and 6.18 µM, respectively.

With `CCc1c(-c2ccc(OC)c(OC)c2)[nH]c2ccc(C(=O)N3CC[C@H](N(C)C)C3)cc12` [Example 30, (S)-(2-(3,4-dimethoxyphenyl)-3-ethyl-1H-indol-5-yl)(3-(dimethylamino)pyrrolidin-1-yl)methanone], the IC50 worked out at 0.632 µM on human TLR7, 0.191 µM at human TLR8 and 4.16 µM on human TLR9.

With `CCc1c(-c2ccc(OC)c(OC)c2)[nH]c2ccc(C(=O)N3CCCC(C)(C)C3)cc12` [Example 32, (2-(3,4-dimethoxyphenyl)-3-ethyl-1H-indol-5-yl)(3,3-dimethylpiperidin-1-yl)methanone], the IC50 against human TLR7 worked out at 1.98 µM; on human TLR8, 0.545 µM; on human TLR9, 5.1 µM.

With `CCc1c(-c2ccc(OC)c(OC)c2)[nH]c2ccc(C(=O)N3CCCC(C(=O)N(CC)CC)C3)cc12` (stereo not drawn) [Example 33, 1-(2-(3,4-dimethoxyphenyl)-3-ethyl-1H-indole-5-carbonyl)-N,N-diethylpiperidine-3-carboxamide], the figures for the IC50 against human TLR7, at human TLR8 and at human TLR9 were 1.12 µM, 0.897 µM and 16.8 µM, respectively.

For `CCc1c(-c2ccc(OC)c(OC)c2)[nH]c2ccc(C(=O)N3CCC(C(N)=O)CC3)cc12` [Example 34, 1-(2-(3,4-dimethoxyphenyl)-3-ethyl-1H-indole-5-carbonyl)piperidine-4-carboxamide], the IC50 on human TLR7 is 1.18 µM; on human TLR8, 0.218 µM; at human TLR9 it was > 50 µM.

Take `CCc1c(-c2ccc(OC)c(OC)c2)[nH]c2ccc(C(=O)N3CCCN(C(C)=O)CC3)cc12` [Example 35, 1-(4-(2-(3,4-dimethoxyphenyl)-3-ethyl-1H-indole-5-carbonyl)-1,4-diazepan-1-yl)ethan-1-one]: the IC50 is 0.595 µM against human TLR7, 0.19 µM on human TLR8 and > 50 µM on human TLR9.

For the compound `CCc1c(-c2ccc(OC)c(OC)c2)[nH]c2ccc(C(=O)N3CCN(CCc4ccccc4)CC3)cc12` [Example 37, (2-(3,4-dimethoxyphenyl)-3-ethyl-1H-indol-5-yl)(4-phenethylpiperazine-1-yl)methanone], the IC50 amounted to 1.3 µM against human TLR7, 0.014 µM at human TLR8 and 9.94 µM on human TLR9.
